# Measurements: patent US20080287527A1, “Pharmaceuticals for treating or preventing oral diseases” (HAWLEY & HAZEL (BVI) COMPANY LIMITED, priority 2007, published 2008)
# Key:
# [1] = test system: TNF-α; assay: LUMINEX analysis of TNF-α in KB cell supernatant; assay type: cell-based, human; conditions: concentration not given
# Description: (§1) Anti-inflammatory activity was assessed using the KB cell (the epidermis cancer cell in human oral cavity). During the experiment, the KB cell inoculated in the cultivating plate was treated with or without positive control or compound 5-hydroxymorusin. After the treatment, the supernatant of the cultivating medium was collected and stored in −80° C. refrigerators. Inflammation was assessed by measuring several inflammation markers: Prostaglandin E2 (PGE2) in the supernatant was detected by Enzyme-linked immunsorbent assay, and LUMINEX™ multifunctional liquid-phase chip analysis system was used for the detection of granulocyte monocyte colony stimulating factor (GM-CSF), tumor necrosis factor-alpha (TNF-α), and interleukins 1-beta and 6 (IL-1β and IL-6).
# (§2) LUMINEX™ multifunctional liquid-phase chip analyses of GM-CSF, TNF-α, IL-1 and IL-6: The 96-well plate was enclosed with enclosing liquid for 30 minutes. Fluorescent microspheres were added into the 96-well plate after dilution. The standard and the samples to be measured were added, and incubated overnight at 4° C. The next day, the supernatant was discarded and 50 μL GM-CSF, TNF-α, IL-1β and IL-6 antibodies were added to each well. After being rinsed for 4 times, the 96-well plate was placed in a shaking table, which was in ambient temperature, to keep the plate away from light for 1 hour. […]
# [2] = test system: IL-6; assay: LUMINEX analysis of IL-6 in KB cell supernatant; assay type: cell-based, human; conditions: concentration not given
# Description: as §1, §2
# [3] = test system: GM-CSF; assay: LUMINEX analysis of GM-CSF in KB cell supernatant; assay type: cell-based, human; conditions: concentration not given
# Description: as §1, §2
# [4] = test system: Streptococcus mutans (S. m) ATCC 25175; assay: MIC by broth micro-dilution against Streptococcus mutans; assay type: cell-based; conditions: 37 °C, 18-24 h, no unit in table, dilution series 250-0.12 mg/L (ceiling 250 ppm)
# Description: (§3) A single colony was picked from the Trypticase Digested Soybean peptone agar blood plate (TSA5B) of ordinarily stored bacteria species and used to inoculate corresponding broth culture medium, which was cultivated in a microaerobic environment (P.g needs anaerobic cultivation) with 95% air, 5% CO2 at 37.0° C.±1.0° C., wherein S.m was cultivated for 18-24 h, and the remaining two species were cultivated for 40-48 h. Then corresponding broth cultivate medium was used to adjust the turbidity of the bacteria suspension to 0.5^# McFarland standard, equivalent to 1.0×10^8 CFU/mL.
# (§4) The operating steps were:
# (§5) a. Preparation of the stock solution of antibacterial pharmaceutical: 1% stock solution of various antibacterial pharmaceuticals was prepared with 100% pure ethanol as solvent. The prepared stock solution was filtered to eliminate bacteria, and was distributed into small portions to be used.
# (§6) b. Range of measured concentration: the present experiment used 250 ppm as the ceiling measured concentration of the anti-bacterial pharmaceutical.
# (§7) c. Measuring method: micro-dilution method. […]
# (§8) The bacteria to be tested and standard bacteria were prepared as above. […] 0.12 mg/L, and the final inoculation quantity was about […] or 5×10^6 bacteria in each well. […]
# [5] = test system: Porphyromonas gingivalis (P. g) ATCC 33277; assay: MIC by broth micro-dilution against Porphyromonas gingivalis; assay type: cell-based; conditions: anaerobic, 37 °C, 18-24 h, no unit in table, dilution series 250-0.12 mg/L (ceiling 250 ppm)
# Description: as §3, §4, §5, §6, §7, §8
# [6] = test system: IL-1β; assay: LUMINEX analysis of IL-1β in KB cell supernatant; assay type: cell-based, human; conditions: concentration not given
# Description: as §1, §2
# [7] = test system: Actinomyces viscosus (A. v) ATCC 27044; assay: MIC by broth micro-dilution against Actinomyces viscosus; assay type: cell-based; conditions: 37 °C, 18-24 h, no unit in table, dilution series 250-0.12 mg/L (ceiling 250 ppm)
# Description: as §3, with “wherein S.m was cultivated for 18-24 h, and the remaining two species were cultivated for 40-48 h.” left out
# as §4, §5, §6, §7, §8
smiles,measurement,setting,value
Oc1cc(Cl)ccc1Oc1ccc(Cl)cc1Cl [Triclosan],"anti-inflammatory effect, TNF-α (the larger the value, the stronger the anti-inflammatory ability)",[1],81%
same,"anti-inflammatory effect, IL-6 (the larger the value, the stronger the anti-inflammatory ability)",[2],31%
same,"anti-inflammatory effect, GM-CSF (the larger the value, the stronger the anti-inflammatory ability)",[3],5%
same,"minimum inhibitive concentration (MIC), S. m ATCC 25175",[4],3.9
same,"minimum inhibitive concentration (MIC), P. g ATCC 33277",[5],7.8
same,"anti-inflammatory effect, IL-1β (the larger the value, the stronger the anti-inflammatory ability)",[6],7%
same,"minimum inhibitive concentration (MIC), A. v ATCC 27044",[7],3.9
